In US20180125993A1 (BEIJING COTIMES BIOTECH COMPANY LIMITED, priority 2014, published 2018):
Marks after values point to notes of the source that are not given here.

Experiments:
2-LMP = assay: Cytotoxicity on human tumor cell lines (ATPLite Assay Kit); assay type: cell-based; settings: Breast cancer
Description: (§1) Eighteen human tumor cell lines were treated with 62.5, 125, 250, 500, or 1000 ng/mL HuCTB006 or different concentrations of chemotherapy drugs, which act as positive controls. […] The culture medium for SK-Hep-1, HepG2, HCT116, SW480, WiDr (1×NEAA), MIA-PaCa-2 (2.5% Horse serum) MDA-MB-231 (1 mM NaPyr, 1×MEM-NEAA, 1×MEM VITAMIN) was DMEM. The culture medium for COLO205, BXPC3 (2 mM glutamin, 10 mM HEPES), Panc2.03 (15FBS, 1 mM NaPyr, 1×MEM-NEAA, […], 10 mM HEPES), H2122, OVCAR3 (1 mM NaPyr, 10 ug/ml human insulin, 10 mM HEPES, 2.5 g/L glucose), Molt-4 (HEPES, 2.5 g/l glocose), Jurkat (HEPES, 2.5 g/l glocose) was RPMI-1640, the culture medium for SK-MES-1 was Eagle's MEM, the culture medium for 2-LMP and DY36T2 was IMEM, and the culture medium for SUM102 (5 ug/ml insulin) was F-12K. The cell viability was determined by ATPLite Assay Kit. If the IC50 value was lower than 62.5 ng/mL, the cells were treated with higher concentration of CTB006 in the second round of experiments to determine IC50 value.

BXPC3 = assay: as above; assay type: cell-based; settings: BXPC3, Pancreatic cancer
Description: as §1

COLO205 = assay: as above; assay type: cell-based; settings: COLO205, Colorectal cancer
Description: as §1

H2122 = assay: as above; assay type: cell-based; settings: H2122, Lung cancer
Description: as §1

HCT116 = assay: as above; assay type: cell-based; settings: HCT116, Colorectal cancer
Description: as §1

MDA-MB-231 = assay: as above; assay type: cell-based; settings: MDA-MB-231, Breast cancer
Description: as §1

MIA-PaCa-2 = assay: as above; assay type: cell-based; settings: MIA-PaCa-2, Pancreatic cancer
Description: as §1

Panc2.03 = assay: as above; assay type: cell-based; settings: Panc2.03, Pancreatic cancer
Description: as §1

SK-Hep-1 = assay: as above; assay type: cell-based; settings: SK-Hep-1, Liver cancer
Description: as §1

SK-MES-1 = assay: as above; assay type: cell-based; settings: SK-MES-1, Lung cancer
Description: as §1

SUM102 = assay: as above; assay type: cell-based; settings: SUM102, Breast cancer
Description: as §1

SW480 = assay: as above; assay type: cell-based; settings: SW480, Colorectal cancer
Description: as §1

H460 = assay: In vitro cytotoxic sensitivity of CTB006; assay type: cell-based, human; settings: H460, Lung cancer
7901 = assay: In vitro cytotoxic sensitivity of CTB006; assay type: cell-based, human; settings: 7901, Stomach cancer
WiDr = assay: Human colon cancer Widr subcutaneous model (Day 27 after treatment); assay type: in vivo, nude mice
Description: Tumor cells (i.e., MIA-PaCa-2, WiDr, H2122, colo205) were inoculated in nude mice's flank at 5×10^6 cells per mouse. The mice were grouped when the average volume of tumors reached about 100˜200 mm^3. “QW”=weekly dose. “Q3d”=dosed every third day. “BiW”=biweekly.
The bodyweight and major/minor axis of the mice were measured twice a week, and the tumor volumes were calculated using the formula: Tumor volume=1/2×major axis[…]. […] “T” represents average tumor volume of the experimental group (cm^3), and “C” represents average tumor volume of the control group (cm^3). The animals were monitored at all times. The bodyweight and major/minor axis or mice were measured twice a week.
Tumor volumes were represented with average±standard error. […] P<0.05 represents significant difference.

[1] = HuCTB006 0.07 mg/kg i.v. QW × 4W
[2] = HuCTB006 0.07 mg/kg i.v. QW × 4W, 0.07 mg/kg
[3] = HuCTB006 0.07 mg/kg i.v. QW × 4W, listed as HUCTB006, 0.07 mg/kg
[4] = HuCTB006 0.22 mg/kg i.v. QW × 4W
[5] = HuCTB006 0.22 mg/kg i.v. QW × 4W, 0.22 mg/kg
[6] = HuCTB006 0.22 mg/kg i.v. QW × 4W, listed as HUCTB006, 0.22 mg/kg
[7] = HuCTB006 0.67 mg/kg i.v. QW × 4W
[8] = HuCTB006 0.67 mg/kg i.v. QW × 4W, 0.67 mg/kg
[9] = HuCTB006 0.67 mg/kg i.v. QW × 4W, listed as HUCTB006, 0.67 mg/kg
[10] = HuCTB006 2 mg/kg i.v. QW × 4W, 2 mg/kg
[11] = HuCTB006 2 mg/kg i.v. QW × 4W, listed as HUCTB006, 2 mg/kg
[12] = repeated experiment, HuCTB006 0.07 mg/kg
[13] = repeated experiment, HuCTB006 0.22 mg/kg
[14] = repeated experiment, HuCTB006 0.67 mg/kg
[15] = repeated experiment, HuCTB006 2 mg/kg

HuCTB006: Monospecific humanized chimeric monoclonal antibody directed to TRAIL-R2 receptor; heavy chain SEQ ID NO: 14, light chain SEQ ID NO: 12
In vitro cytotoxic sensitivity of CTB006 (2-LMP): Responder
In vitro cytotoxic sensitivity of CTB006 (BXPC3): Responder
In vitro cytotoxic sensitivity of CTB006 (COLO205): Responder
In vitro cytotoxic sensitivity of CTB006 (H2122): Responder
In vitro cytotoxic sensitivity of CTB006 (HCT116): Responder
In vitro cytotoxic sensitivity of CTB006 (MDA-MB-231): Responder
In vitro cytotoxic sensitivity of CTB006 (MIA-PaCa-2): Responder
In vitro cytotoxic sensitivity of CTB006 (Panc2.03): Partial-responder
In vitro cytotoxic sensitivity of CTB006 (SK-Hep-1): Partial-responder
In vitro cytotoxic sensitivity of CTB006 (SK-MES-1): Responder
In vitro cytotoxic sensitivity of CTB006 (SUM102): Partial-responder
In vitro cytotoxic sensitivity of CTB006 (SW480): Partial-responder
In vitro cytotoxic sensitivity of CTB006 (H460): Partial-responder
In vitro cytotoxic sensitivity of CTB006 7901: Non-responder
T/C % (Calculated using tumor volume) (WiDr; [1]): 90.16%
Time of tumor volume changed significantly (WiDr; [1]): 7
Tumor Volume Mean ± SEM (WiDr; [1]): 1.76 ± 0.18 cm^3
Tumor weight Mean ± SEM (WiDr; [1]): 1.29 ± 0.18 g
TGI (Calculated using tumor volume) (WiDr; [2]): 6.61%
TGI (Calculated using tumor weight) (WiDr; [2]): 11.99%
TGI (Calculated using tumor volume) (WiDr; [3]): 6.61% ^1
TGI (Calculated using tumor weight) (WiDr; [3]): 11.99%
T/C % (Calculated using tumor volume) (WiDr; [4]): 81.49%
Time of tumor volume changed significantly (WiDr; [4]): 7
Tumor Volume Mean ± SEM (WiDr; [4]): 1.54 ± 0.18 cm^3
Tumor weight Mean ± SEM (WiDr; [4]): 1.16 ± 0.13 g
TGI (Calculated using tumor volume) (WiDr; [5]): 18.71%
TGI (Calculated using tumor weight) (WiDr; [5]): 21.13%
TGI (Calculated using tumor volume) (WiDr; [6]): 18.71% ^ac
TGI (Calculated using tumor weight) (WiDr; [6]): 21.13%
T/C % (Calculated using tumor volume) (WiDr; [7]): 49.54%
Time of tumor volume changed significantly (WiDr; [7]): 11
Tumor Volume Mean ± SEM (WiDr; [7]): 0.96 ± 0.10 cm^3
Tumor weight Mean ± SEM (WiDr; [7]): 0.68 ± 0.08 g
TGI (Calculated using tumor volume) (WiDr; [8]): 49.42%
TGI (Calculated using tumor weight) (WiDr; [8]): 53.48%
TGI (Calculated using tumor volume) (WiDr; [9]): 49.42% ^abc
TGI (Calculated using tumor weight) (WiDr; [9]): 53.48% ^a
T/C % (Calculated using tumor volume) (WiDr; HuCTB006 2 mg/kg i.v. QW × 4W): 42.17%
Time of tumor volume changed significantly (WiDr; HuCTB006 2 mg/kg i.v. QW × 4W): 14
Tumor Volume Mean ± SEM (WiDr; HuCTB006 2 mg/kg i.v. QW × 4W): 0.80 ± 0.11 cm^3
Tumor weight Mean ± SEM (WiDr; HuCTB006 2 mg/kg i.v. QW × 4W): 0.53 ± 0.08 g
TGI (Calculated using tumor volume) (WiDr; [10]): 57.34%
TGI (Calculated using tumor weight) (WiDr; [10]): 63.81%
TGI (Calculated using tumor volume) (WiDr; [11]): 57.34% ^abc
TGI (Calculated using tumor weight) (WiDr; [11]): 63.81% ^a
TGI (Calculated using tumor volume) (WiDr; [12]): 36.21%
TGI (Calculated using tumor weight) (WiDr; [12]): 39.94%
TGI (Calculated using tumor volume) (WiDr; [13]): 54.98%
TGI (Calculated using tumor weight) (WiDr; [13]): 57.56%
TGI (Calculated using tumor volume) (WiDr; [14]): 53.73%
TGI (Calculated using tumor weight) (WiDr; [14]): 49.85%
TGI (Calculated using tumor volume) (WiDr; [15]): 53.77%
TGI (Calculated using tumor weight) (WiDr; [15]): 53.75%
